Laboratory results published in patent US20240299393A1, “SMALL MOLECULE DISRUPTORS OF PROTEIN INTERACTIONS IN HISTONE DEACETYLASE COMPLEXES” (Dana-Farber Cancer Institute, Inc., priority 2021, published 2024).

Columns and labels:
[1] = biological target: Sc Sin3 PAH2-Ume6 SID (TAMRA-labeled) interaction (Saccharomyces cerevisiae, UniProt P22579); assay: biochemical
Method: Symbols represent individual data points (A) or means with SEM, and lines fitted curves.
IC50 determination for unlabeled Ume6 SID, E6, E6R and E6S: the concentrations of FITC-Ume6 SID (30 nM), and GST-Sin3 PAH2 (3 μM) were fixed and the compounds were titrated with an HP D300 (Hewlett-Packard, CA) to the assay plate.

[2] = tested on: full-length G. princeps luciferase; assay: GPCA control with full-length luciferase; format: cell-based, Gaussia princeps; details: 16 h
Method: The ability of compounds to inhibit binary PPIs in the Sin3/Rpd3L HDAC complex was tested by GPCA in a high-throughput screening format. Interactions identified in the mapping at 1.0% […]2 detection cutoff were reconstituted by expressing protein pairs in the exact same orientations. […] HEK293T cells were transfected with 100 ng of each GPCA plasmid expressing either protein X, or protein Y, as described above. […] The luminescence signal for each PPI was measured by averaging the different DMSO replicates, and calculating the standard deviation of DMSO values for each interaction. For each PPI, an individual data point for every compound tested was obtained and this value was compared to the averaged DMSO value. For each interaction, a particular compound was scored as a PPI inhibitor when it decreased its luminescence signal by at least three standard deviations compared to the corresponding averaged DMSO value. […] 50 μL/well of the Renilla luciferase substrate (Renilla Luciferase Assay system, cat #E2820, Promega) were then added and luminescence was read approximately two minutes after injection using a Centro XS^3 LB960 plate reader (3 s integration). For each plate, signal was measured twice and the first measurement was used for calculations. Results were normalized by averaging raw luminescence values from DMSO wells and dividing each data point by this averaged value.

Sin3-Ume6 = biological target: T1, Sin3-Ume6 (Saccharomyces cerevisiae, UniProt P22579); assay: GPCA binary PPI inhibition in HEK293T cells, Sin3-Ume6; format: cell-based, human HEK293T cells
T1 construct: ORFs corresponding to full-length subunits of the Rpd3L HDAC complex were PCR-amplified from yeast genomic DNA; expressed in transfected cells; host or cells: HEK293T
Method: GPCA (N1-N2 version) was implemented as reported in [Choi et al 2019]. HEK293T cells were seeded at 6×10^4 cells per well in 96-well, flat-bottom, cell culture microplates (Greiner Bio-One, #655083), and cultured in Dulbecco's modified Eagle's medium (DMEM) supplemented with 10% fetal calf serum at 37° C. and 5% CO2. Twenty-four hours later, cells were transfected with 100 ng of each GPCA plasmid (GPCA-N1 and GPCA-N2) using linear polyethylenimine (PEI) to co-express the protein pairs fused with complementary luciferase fragments, Luc1 and Luc2. The DNA/PEI ratio used for transfection was 1:3 (mass:mass). […] Luminescence was measured by auto-injecting 50 μL Renilla luciferase substrate (Renilla Luciferase Assay system, catalog No. E2820, Promega) per well and integrating light output for 4 s using a TriStar luminometer (Berthold).
The ability of compounds to inhibit binary PPIs in the Sin3/Rpd3L HDAC complex was tested by GPCA in a high-throughput screening format. […] The luminescence signal for each PPI was measured by averaging the different DMSO replicates, and calculating the standard deviation of DMSO values for each interaction. […] For each interaction, a particular compound was scored as a PPI inhibitor when it decreased its luminescence signal by at least three standard deviations compared to the corresponding averaged DMSO value. […]

T1 sequence (P22579 whole entry): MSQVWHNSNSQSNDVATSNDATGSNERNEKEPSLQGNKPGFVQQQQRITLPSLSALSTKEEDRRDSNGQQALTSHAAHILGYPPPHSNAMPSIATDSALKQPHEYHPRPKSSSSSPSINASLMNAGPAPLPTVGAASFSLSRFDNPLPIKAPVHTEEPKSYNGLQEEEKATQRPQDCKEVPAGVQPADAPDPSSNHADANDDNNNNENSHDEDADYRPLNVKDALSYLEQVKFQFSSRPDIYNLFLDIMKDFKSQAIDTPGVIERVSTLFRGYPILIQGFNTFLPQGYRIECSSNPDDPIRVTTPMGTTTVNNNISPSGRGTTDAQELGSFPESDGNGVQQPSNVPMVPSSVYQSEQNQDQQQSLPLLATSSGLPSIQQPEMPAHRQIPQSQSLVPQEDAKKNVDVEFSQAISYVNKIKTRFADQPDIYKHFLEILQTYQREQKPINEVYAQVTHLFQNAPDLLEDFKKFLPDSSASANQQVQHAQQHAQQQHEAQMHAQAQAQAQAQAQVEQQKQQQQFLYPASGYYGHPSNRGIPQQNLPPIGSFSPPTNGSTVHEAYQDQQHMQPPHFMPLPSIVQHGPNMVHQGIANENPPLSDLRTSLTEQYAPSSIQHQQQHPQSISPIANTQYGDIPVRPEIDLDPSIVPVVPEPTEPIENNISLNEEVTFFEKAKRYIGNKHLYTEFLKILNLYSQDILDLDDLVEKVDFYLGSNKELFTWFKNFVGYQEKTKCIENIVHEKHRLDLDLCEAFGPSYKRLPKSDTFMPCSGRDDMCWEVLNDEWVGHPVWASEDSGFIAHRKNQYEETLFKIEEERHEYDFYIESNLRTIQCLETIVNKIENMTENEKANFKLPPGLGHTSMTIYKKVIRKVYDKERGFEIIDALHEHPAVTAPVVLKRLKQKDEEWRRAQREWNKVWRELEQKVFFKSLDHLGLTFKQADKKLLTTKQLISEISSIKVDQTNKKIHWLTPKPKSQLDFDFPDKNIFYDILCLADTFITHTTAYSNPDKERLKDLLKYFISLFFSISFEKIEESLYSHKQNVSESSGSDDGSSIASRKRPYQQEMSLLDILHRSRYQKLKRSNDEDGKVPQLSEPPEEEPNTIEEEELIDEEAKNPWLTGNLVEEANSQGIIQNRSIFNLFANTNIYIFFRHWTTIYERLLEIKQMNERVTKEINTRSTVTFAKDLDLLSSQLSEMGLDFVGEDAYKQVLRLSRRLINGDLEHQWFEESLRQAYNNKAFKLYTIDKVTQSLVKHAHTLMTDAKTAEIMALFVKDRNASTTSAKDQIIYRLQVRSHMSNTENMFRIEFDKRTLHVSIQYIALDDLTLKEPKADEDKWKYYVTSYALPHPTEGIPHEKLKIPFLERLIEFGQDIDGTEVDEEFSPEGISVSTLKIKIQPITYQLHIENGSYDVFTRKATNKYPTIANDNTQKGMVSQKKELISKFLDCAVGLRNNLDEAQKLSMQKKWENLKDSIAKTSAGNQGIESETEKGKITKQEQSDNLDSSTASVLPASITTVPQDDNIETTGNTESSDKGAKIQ
Sc Sin3 PAH2-Ume6 SID (TAMRA-labeled) interaction, sequence (P22579 402-473): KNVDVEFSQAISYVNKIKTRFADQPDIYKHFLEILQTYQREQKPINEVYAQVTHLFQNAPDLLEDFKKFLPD

## C[C@@H](NC(=O)c1c(O)n2ccccc2nc1=O)c1ccccc1 [E6R, 4-hydroxy-2-oxo-N—((R)-1-phenylethyl)-3,4-dihydro-2H-pyrido[, 2-a]pyrimidine-3-carboxamide]
[1]
  IC50: 63.7 µM

## CC(NC(=O)c1c(O)n2ccccc2nc1=O)c1ccccc1 (racemic) [E6]
[2]
  effect on full-length G. princeps luciferase: does not perturb
Sin3-Ume6; 10 μM, 1 h
  inhibition of Sin3-Ume6 PPI (fold change over DMSO): ~2.5 fold
Sin3-Ume6; GPCA
  inhibition of Sin3-Ume6 PPI: selectively inhibit
